The values that follow come from patent US20190192427A1, “AZOLE COMPOUND OPHTHALMIC PREPARATION” (BIOTOOL, LLC, priority 2016, published 2019).

Structures are written as SMILES.

One data set concerns traumatic cataract. Nature of the data set: Rat acupuncture (traumatic) cataract model, eye drops, lens opacity phase by slit lamp. The settings on record: 10 suffering eyes per group, about 20 μL three times a day, 10 weeks. Format: in vivo, rats. Here is the method: (§1) Rat model of cataract was made: Wistar rats 12 days after birth were selected, male or female, modeled with sodium selenite (senile cataract), each rat was injected subcutaneously in the back neck according to 20 umol/kg body weight. Acupuncture was used to model adult rats (traumatic cataract).
(§2) The opacity of the lens was observed using a slit lamp, and the lens opacity is generally classified into phase 0-V.
(§3) phase 0—Lens are transparent;
(§4) phase I—The cortex around the lens is scattered in small vacuoles;
(§5) phase II—The cortex around the lens is in ring-shaped dense medium vacuoles;
(§6) phase III—Other parts of cortex are in flaky turbidity;
(§7) phase IV—Lens nucleus and perinuclear cortex are turbid;
(§8) phase V—The lens is completely turbid.
(§9) After 3 days of modeling, econazole eye drops were administered three times a day including morning, noon, and evening, at intervals of at least 5 hours. Every group was made up of 10 cases of cataract suffering eyes involved in the test. The mode of administration was directly dropping to the eye to ensure that the drug was completely dripped into the eye. Each case of suffering eye receiving treatment was administrated one drop at a time with an amount of about 20 μL, and was continuously administrated for 10 weeks. All cataract suffering eyes in different treatment groups were observed and judged for signs of symptom ease or symptom relief.

In another data set the test system is nuclear cataract. Nature of the data set: Rat sodium selenite (senile/nuclear) cataract model, eye drops, lens opacity phase by slit lamp. It is filed as in vivo, Wistar rats. The settings on record: 10 suffering eyes per group, about 20 μL three times a day, 10 weeks. The protocol: as §1, §2, §3, §4, §5, §6, §7, §8, §9
A short description of data set [1]: Tolerance of eye drops in cataract rats during treatment. It is filed as in vivo, rat. The note with it: eye drops three times a day, 10 weeks. Here is the method: as §9

Regarding `Clc1ccc(COC(Cn2ccnc2)c2ccc(Cl)cc2Cl)cc1` (stereo not shown) [econazole, Econazole], in the data set with traumatic cataract, the “number of eyes in phase 0” value was 4, the “number of eyes in phase I” value turned out to be 5, the “number of eyes in phase II” value came to 1 and the “number of eyes in phase III” value was 0. Besides, in the data set with traumatic cataract, the “number of eyes in phase IV” value amounted to 0 and the “number of eyes in phase V” value was determined as 0. In the data set with nuclear cataract, the “number of eyes in phase 0” value worked out at 6, the “number of eyes in phase I” value was 0, the “number of eyes in phase II” value is 0 and the “number of eyes in phase III” value worked out at 0. In addition, in the data set with nuclear cataract, the “number of eyes in phase IV” value is recorded as 4 and the “number of eyes in phase V” value was 0. For the same molecule, in data set [1], the “discomfort or ocular allergic reaction throughout the treatment” value is given as “No rat has discomfort or ocular allergic reaction”.
